Source: patent publication US20090234019A1, “T Type Calcium Channel Inhibitors” (priority 2004, published 2009)

Columns and labels:
Jurkat cells [1] = test: Inhibition of calcium entry into Jurkat cells (indo-1 fluorescence); type: cell-based, human; details: Jurkat cell line, Tables 1 and 2, unit inferred, read-out: IC50 for inhibition of Ca^2+ entry
Description: Cells were incubated in growth media containing 1 uM of the acetoxy-methyl ester of the Ca2+-sensitive fluorescent dye indo-1 (indo-1/AM; Molecular Probes, Eugene, Oreg.) for 1 h at 37° C. Cells were washed three times in buffer A [10 mM HEPES (pH 7.4), 1 mM MgCl2, 3 mM KCl, 1 mM CaCl2, 140 mM NaCl, 0.1% glucose, and 1% fetal bovine serum] and suspended to a final concentration of 10^6 cells/ml. Before stimulation, cells were warmed to 37° C. Changes in [Ca2+]i were monitored in an SLM […] spectrofluorimeter (SLM/Aminco; Urbana, Ill.) using previously published methods ([…]., Szabo, G., and Gray, L. S. 1996. A voltage operable current is involved in activation-induced Ca^2+ entry in human lymphocytes whereas ICRAC has no apparent role. Am. J. Physiol. 271:[…]., and Gray, L. S. 1998. Calmodulin regulation of Ca^2+ entry in Jurkat T cells. Cell Calcium 23:361-368).

Jurkat cells [2] = test: Inhibition of proliferation of Jurkat cells; type: cell-based, human; details: for IC50: Jurkat cell line, Tables 1 and 2, unit inferred, read-out: IC50 for inhibition of proliferation
Description: Cancer cell lines were obtained from the American Type Culture Collection (Manassas, Va.). Cell lines were maintained in RPMI1640 supplemented with glutamine and 5% fetal bovine serum containing SerXtend (Irvine Scientific) when appropriate insulin, as directed by the ATCC. The fetal bovine serum used for culture was heat-inactivated by maintaining the serum at 56° C. for 1 h. Cell lines used were a T celleukemia (Jurkat), prostate cancer (PC3, DU145, LNCAP), breast cancer (MDA468, MDA361, MCF7), pancreatic cancer (MIA PaCa2), liver cancer (Hep G2), lung cancer (A549, NCl H460), colon cancer (HT29, HCT 116), and ovarian cancer (SK-OV-3).
LNCaP cells at 2.5×10^4 cells/well or PC-3 cells at 5×10^4 cells/well, both in a final volume of […], were plated in triplicate in standard flat-bottomed 96-well tissue culture plates in the presence of drug or vehicle (DMSO). Unless otherwise indicated, cells were grown for 48 h at 37° C. in a CO2 incubator. Relative cell growth was determined with the CellTiter 96 aqueous cell proliferation assay (Promega, Madison, Wis.) as described by the manufacturer using an automated plate reader. Results were calculated in a blinded fashion and are the means of triplicate determinations.

Compound | IC50 (Jurkat cells [1]; Homo sapiens) [µM] | IC50 (Jurkat cells [2]; Homo sapiens) [µM] | IC50 (Jurkat cells [1]) [µM] | IC50 (Jurkat cells [2]) [µM] | effect on proliferation of ionomycin alone (Jurkat cells [2]; 30 nM ionomycin alone, Jurkat)
Cc1cccc(CN2CCN(C(c3ccccc3)c3ccc(Cl)cc3)CC2)c1 (centres unmarked) [Meclizine] | 30 | 30 |  |  | 
COc1ccc2c(c1)N(C[C@H](C)CN(C)C)c1ccccc1S2 [Methotrimeprazine] | 10 | 30 |  |  | 
O=C(O)c1cccnc1Nc1cccc(C(F)(F)F)c1 [Niflumic acid] | 50 | 100 |  |  | 
COCCOC(=O)C1=C(C)NC(C)=C(C(=O)OC(C)C)C1c1cccc([N+](=O)[O-])c1 (centres unmarked) [Nimpodipine] |  |  | > 100 | > 100 | 
C1CCC(C(CC2CCCCN2)C2CCCCC2)CC1 (centres unmarked) [Perhexiline] | 5 | 10 |  |  | 
O=c1[nH]c2ccccc2n1C1CCN(CCCC(c2ccc(F)cc2)c2ccc(F)cc2)CC1 [Pimozide] | > 100 | > 100 |  |  | 
CN(C)CCCN1c2ccccc2Sc2ccccc21 [Promazine] | 10 | 30 |  |  | 
C[C@H](CCC(=O)O)C[C@H](C)C[C@H](C)C(=O)/C=C(\O)[C@H](C)C[C@H](C)C/C=C/[C@@H](C)[C@@H](O)[C@@H](C)[C@@H](O)C[C@@H]1CC[C@@](C)([C@H]2CC[C@@](C)([C@@H](C)O)O2)O1 [ionomycin] |  |  |  |  | no effect
Prenylamine lactate |  |  | 10 | 10 | 

The next lines start with results.

IC50 (Jurkat cells [1]; Homo sapiens) [µM] | IC50 (Jurkat cells [2]; Homo sapiens) [µM] | IC50 (Jurkat cells [1]) [µM] | IC50 (Jurkat cells [2]) [µM] | Compound | effect on proliferation of ionomycin alone (Jurkat cells [2]; 30 nM ionomycin alone, Jurkat)
5 | 10 |  |  | Cc1cccc(C)c1NC(=O)CN1CCN(CCCC(c2ccc(F)cc2)c2ccc(F)cc2)CC1 [Lidoflazine] | 
 |  | 10 | 30 | CC(Cc1ccc(O)c(O)c1)C(C)Cc1ccc(O)c(O)c1 (centres unmarked) [NDGA, Nordihydroguaiaretic acid] | 
10 | 30 |  |  | COC(=O)C1=C(C)NC(C)=C(C(=O)OCCN(C)Cc2ccccc2)C1c1cccc([N+](=O)[O-])c1 (centres unmarked) [Nicardipine] | 
60 | 4 |  |  | CC(CN1c2ccccc2Sc2ccccc21)N(C)C (centres unmarked) [Promethazine] | 
30 | 30 |  |  | CCC(=O)c1ccc2c(c1)N(CC(C)N(C)C)c1ccccc1S2 (centres unmarked) [Propiomazine] | 
10 | 3 |  |  | COc1ccc2cc1Oc1ccc(cc1)C[C@H]1c3cc(c(OC)cc3CCN1C)Oc1c(OC)c(OC)cc3c1[C@H](C2)N(C)CC3 [Tetrandrine] | 
